Where two headings read alike, the source gives them in different places. Marks after values point to notes of the source that are not given here.
Assays:
IL-1β = test: xMAP inflammation biomarkers in HEp-2 cells; type: cell-based, human; details: two days after addition
[1] = molecular target: SARS-CoV-2 recombinant antigen S2 (Severe acute respiratory syndrome coronavirus 2, UniProt P0DTC2)
IL-8 = test: xMAP inflammation biomarkers in HEp-2 cells; type: cell-based, human; details: 2 days posttreatment, concentrations below CC50
IL-7 = test: xMAP inflammation biomarkers in HEp-2 cells; type: cell-based, human; details: 2 days posttreatment, concentrations below CC50
[2] = molecular target: SARS-CoV-2 recombinant antigen N (Severe acute respiratory syndrome coronavirus 2, UniProt P0DTC9)
GM-CSF = test: xMAP inflammation biomarkers in HEp-2 cells; type: cell-based, human; details: 2 days posttreatment, concentrations below CC50
MS2 Phage = test: RNase activity by RT^2-PCR, whole MS2 phage; type: biochemical, bacteriophage MS2; details: 0.1 mg/mL
TNFα = test: xMAP inflammation biomarkers in HEp-2 cells; type: cell-based, human; details: 2 days posttreatment, concentrations below CC50
IL-10 = test: xMAP inflammation biomarkers in HEp-2 cells; type: cell-based, human; details: 2 days posttreatment, concentrations below CC50
MIP-1β = test: xMAP inflammation biomarkers in HEp-2 cells; type: cell-based, human; details: 2 days posttreatment, concentrations below CC50
IL-17A = test: xMAP inflammation biomarkers in HEp-2 cells; type: cell-based, human; details: 2 days posttreatment, concentrations below CC50
G-CSF = test: xMAP inflammation biomarkers in HEp-2 cells; type: cell-based, human; details: 2 days posttreatment, concentrations below CC50
L41 [3] = test: MTT cytotoxicity test, L41 cells; details: concentration of the studied substance
IL-5 = test: xMAP inflammation biomarkers in HEp-2 cells; type: cell-based, human; details: 2 days posttreatment, concentrations below CC50
L41 [4] = system: L41
MS2 RNA = test: RNase activity by RT^2-PCR, isolated MS2 RNA; type: biochemical, bacteriophage MS2; details: 0.1 mg/mL, 37 °C
IL-12(p70) = test: xMAP inflammation biomarkers in HEp-2 cells; type: cell-based, human; details: 2 days posttreatment, concentrations below CC50
IFNγ = test: xMAP inflammation biomarkers in HEp-2 cells; type: cell-based, human; details: 2 days posttreatment, concentrations below CC50
IL-13 = test: xMAP inflammation biomarkers in HEp-2 cells; type: cell-based, human; details: 2 days posttreatment, concentrations below CC50
MCP-1 (MCAP) = test: xMAP inflammation biomarkers in HEp-2 cells; type: cell-based, human; details: 2 days posttreatment, concentrations below CC50
HT-29 [5] = test: MTT cytotoxicity test, HT-29 cells; details: HT-29, MTT; concentration of the studied substance
HEp-2 = test: MTT cytotoxicity test, HEp-2 cells; details: HEp-2, MTT; concentration of the studied substance
IL-4 = test: xMAP inflammation biomarkers in HEp-2 cells; type: cell-based, human; details: 2 days posttreatment, concentrations below CC50
SARS-CoV-2 RNA = type: biochemical; details: 0.1 mg/mL, 37 °C
IL-6 = test: xMAP inflammation biomarkers in HEp-2 cells; type: cell-based, human; details: 2 days posttreatment, concentrations below CC50
IL-2 = test: xMAP inflammation biomarkers in HEp-2 cells; type: cell-based, human; details: 2 days posttreatment, concentrations below CC50
HT-29 [6] = system: HT-29
[7] = system: human cell lines (HEp-2, L41, HT-29); test: MTT cytotoxicity test, three human cell lines taken together; type: cell-based
[8] = Stability on storage / in media; type: physicochemical; details: storage in water solution
[9] = system: SARS-CoV-2 RNA from COVID-19 Patient Blood; type: biochemical
[10] = design: method as in earlier work; details: cited from earlier work
[11] = system: influenza A viral and cellular RNA; design: method as in earlier work; details: 2 mM, 1 h at 37 °C; cited from earlier work
[12] = Height of nanomaterials by AFM; type: physicochemical

O=[N+]([O-])[O-].[Ag+] [AgNO3]
IL1β production (IL-1β): up to 0.08 pg/mL | Effect on binding of antigen S2 with polyclonal antibodies (ELISA) [1]: inhibit binding | Lowest concentration for significant reproducible binding suppression ([1]; ELISA, antigen S2 with human polyclonal antibodies): 100 µg/mL | IL-8, ratio of MFI to control intact cells (IL-8): 3.71 ↑ | IL-7, ratio of MFI to control intact cells (IL-7): 0.70 | Effect on binding of antigen N with polyclonal antibodies (ELISA) [2]: inhibit binding | Lowest concentration for significant reproducible binding suppression [2]: 100 µg/mL | GM-CSF, ratio of MFI to control intact cells (GM-CSF): 0.92 | Incubation required for complete damage of RNA inside the MS2 phage (MS2 Phage; 37 °C (data not shown)): at least 1 h | TNFα, ratio of MFI to control intact cells (TNFα): 1.15 ↑ | IL-10, ratio of MFI to control intact cells (IL-10): 0.78 | MIP-1β, ratio of MFI to control intact cells (MIP-1β): 1.17 ↑ | IL-17A, ratio of MFI to control intact cells (IL-17A): 0.97 | G-CSF, ratio of MFI to control intact cells (G-CSF): 1.12 ↑ | Cytotoxic concentration CC50 (L41 [3]): 100 (63.49 Ag+) μg/mL | IL-5, ratio of MFI to control intact cells (IL-5): 0.88 | CC50, corresponding concentration of Ag+ (L41 [4]): 100 (63.49 Ag+) μg/mL | Time for complete cleavage of isolated MS2 RNA (MS2 RNA): 15 min | IL-12(p70), ratio of MFI to control intact cells (IL-12(p70)): 0.70 | IFNγ, ratio of MFI to control intact cells (IFNγ): 1.03 | IL-13, ratio of MFI to control intact cells (IL-13): 0.81 | MCP-1 (MCAP), ratio of MFI to control intact cells (MCP-1 (MCAP)): 1.19 ↑ | Cytotoxic concentration CC50 (HT-29 [5]): 100 (63.49 Ag+) μg/mL | Cytotoxic concentration CC50 (HEp-2): 50 (31.75 Ag+) * μg/mL | IL-4, ratio of MFI to control intact cells (IL-4): 0.84 | Incubation necessary for exhaustive hydrolysis of SARS-CoV-2 RNA (SARS-CoV-2 RNA): 1 h | ΔCt = Ct (sample) − Ct (control), SARS-CoV-2 RNA (SARS-CoV-2 RNA; RT^2-PCR): 0.9 | IL-6, ratio of MFI to control intact cells (IL-6): 0.85 | IL-2, ratio of MFI to control intact cells (IL-2): 0.74 | CC50, corresponding concentration of Ag+ (HT-29 [6]): 100 (63.49 Ag+) μg/mL | Toxicity for three human cell lines ([7]; silver ions at 10 μg/mL): not toxic

Li^+[Ag^+2Cys2^−(OH^−)2(NH3)2] [Ag-2S]
Effect on binding of antigen N with polyclonal antibodies (ELISA) [2]: did not significantly differ from the positive controls | Stability of structure and physico-chemical properties during storage [8]: up to 10 years | ΔCt = Ct (sample) − Ct (control), SARS-CoV-2 RNA from COVID-19 Patient Blood [9]: 1.6 | ΔCt = Ct (sample) − Ct (control), MS2 Phage (MS2 Phage; 37 °C, RT^2-PCR): 7.5 | Cytotoxic concentration CC50 (L41 [3]): 21.2 (4.32 Ag+) μg/mL | Time for complete cleavage of isolated MS2 RNA (MS2 RNA): 15 min | Cytotoxic concentration CC50 (HT-29 [5]): 15.9 (3.24 Ag+) μg/mL | Damage of cellular DNA and viral antigens after incubation [10]: neither cellular DNA nor viral antigens were damaged | Incubation necessary for exhaustive hydrolysis of SARS-CoV-2 RNA (SARS-CoV-2 RNA): 1 h | Cleavage of total RNA [11]: Complete cleavage | CC50 ([7]; over the human cell lines (Table 1)): 5.3 to 21.2 µg/mL | CC50 ([7]; range over the human cell lines, read-out: CC50): 10 to 40 µM | Particle height range (AFM) ([12]; height distribution histograms, includes protein shell for Ag NCs-IgG): 1–2 nm | Most probable height (AFM) ([12]; height histograms): ~ 1 nm

From article PMC9144282 (Viruses, 2022)
